The test system of one data set is underarm odor. The experiment in a line: Deodorant value test (modified), odor assessment on axillae of human subjects. It counts as in vivo. The settings on record: general statement in description. The protocol: A typical test for deodorant effect of the present invention was carried out as follows. The test solution was the composition containing 0.4% monensin. The positive control was 8.2% aluminum chlorhydrate, a level that is used in most deodorant or antiperspirant products on the market and 0.4% chlorhesidine digluconate, a level that is usually used for bacterial killing. The negative control was a vehicle consisting of 60% ethanol and 40% water. Three experienced underarm odor assessors who are able to rank correctly the odor intensities based on the deodorant value test system (U.S. Pat. No. 4,278,658) performed odor assessments. Deodorant assessment scores were recorded according to the malodor category scale, when applied directly to the axillae skin of a panel of human subjects. [table] The described in deodorant value test system has been modified by measuring odor intensity every 24 hours after treatment until odor intensity is detectable (average score 1 or up) on a 0-5 score instead of just 24 hours after In example 2, fifteen subjects selected by experienced odor assessors have average odor score 3.5 (range from score 3-5). […] At 24 hour intervals, each subject was evaluated for underarm odor by averaging the score of the three assessors until odor in test groups was detectable (score 1 or up).

Another data set has as its system skin. The settings on record: human, in vivo.

The structures appear in SMILES notation.

On to `CC[C@@]1([C@@H]2O[C@@H]([C@H]3O[C@@](O)(CO)[C@H](C)C[C@@H]3C)C[C@@H]2C)CC[C@H]([C@]2(C)CC[C@]3(C[C@H](O)[C@@H](C)[C@@H]([C@@H](C)[C@@H](OC)[C@H](C)C(=O)O)O3)O2)O1` [monensin, Monensin], for which, in the data set with underarm odor, the “duration of deodorant effect in preventing malodor” value was “deodorant effect with a longer period than expected”. For the same compound, the skin irritation result in the data set on skin is reported as “did not cause any irritation”.

The record behind these values is US20020192171A1, “Method for preventing malodor” (priority 2001, published 2002).
